Source: patent US20260258039A1, “AROMATIC COMPOUND, METHOD FOR PREPARING SAME, AND USE THEREOF IN PREPARATION OF ESTROGEN RECEPTOR DEGRADER” (Hinova Pharmaceuticals Inc., priority 2022, published 2026)

Molecular target: T1, ER (Homo sapiens, UniProt P03372)
T1 construct: T47D breast cancer cells were subcultured in cell culture medium; endogenous in cells; host or cells: T47D breast cancer cells
T1 sequence (P03372 1-595): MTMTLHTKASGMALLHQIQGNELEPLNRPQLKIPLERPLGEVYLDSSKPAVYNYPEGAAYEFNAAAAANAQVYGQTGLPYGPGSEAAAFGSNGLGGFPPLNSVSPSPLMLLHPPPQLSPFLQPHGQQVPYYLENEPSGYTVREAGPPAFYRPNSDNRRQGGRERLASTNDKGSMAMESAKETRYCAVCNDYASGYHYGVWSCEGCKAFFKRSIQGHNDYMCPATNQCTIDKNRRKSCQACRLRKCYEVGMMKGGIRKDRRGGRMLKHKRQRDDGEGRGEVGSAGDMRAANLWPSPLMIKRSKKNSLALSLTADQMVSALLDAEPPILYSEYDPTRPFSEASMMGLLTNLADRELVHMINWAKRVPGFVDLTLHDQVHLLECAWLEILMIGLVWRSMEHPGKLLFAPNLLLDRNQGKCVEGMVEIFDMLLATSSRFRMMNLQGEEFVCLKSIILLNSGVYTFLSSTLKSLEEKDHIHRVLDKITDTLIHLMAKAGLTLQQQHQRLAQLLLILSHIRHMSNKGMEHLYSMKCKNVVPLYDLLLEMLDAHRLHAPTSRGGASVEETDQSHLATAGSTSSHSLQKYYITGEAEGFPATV
Test: Degradation activities on ER (ELISA) in T47D breast cancer cells
Assay type: cell-based
Conditions: T47D cells, 24 h, ELISA; for DC50: concentration required to degrade 50% of the target protein; for Dmax: maximum percentage of target protein degraded, read-out: Dmax
Method: T47D breast cancer cells were subcultured in cell culture medium, and then the cells in good growth condition were seeded into 96-well plates at 80 µL/well, with 2.5×10^4 cells per well. The cells were incubated in a 37° C., 5% CO2 incubator for 3 days. The drug was prepared into a 10 mM stock solution with dimethyl sulfoxide (DMSO). Prior to use, the stock solution was diluted with cell culture medium to obtain six final concentrations (100 nM, 25 nM, 6.25 nM, 1.56 nM, 0.39 nM, and […]), and gently mixed. Additionally, negative control wells (only containing culture medium) and positive control wells (only containing cells and DMSO) were included. After the cells were incubated in the incubator for 24 h, the cells were rinsed once with ice-cold 1×PBS. […] The plate was sealed with plastic film, and incubated in a 37° C. incubator for 2 h. The film was removed. 200 μL of 1× washing buffer was added to each well, and then the plate was shaken for 5 min. The washing buffer was discarded, and the plate was pat-dried. The plate was washed four times. 100 μL of freshly prepared detection antibody (green) was added to each well of the ELISA plate. The plate was sealed with plastic film, and then incubated in a 37° C. incubator for 1 h. The film was removed, and the detection antibody was discarded. The plate was pat-dried. 200 μL of 1× washing buffer was added to each well, and then the plate was shaken for 5 min. The washing buffer was discarded, and the plate was pat-dried. The plate was washed four times. 100 μL of freshly prepared HRP-labeled secondary antibody (red) was added to each well of the ELISA plate. The plate was sealed with plastic film, and incubated in a 37° C. incubator for 30 min. The film was removed, the secondary antibody was discarded, and the plate was pat-dried, followed by adding 200 μL of 1× washing buffer to each well. The plate was shaken for 5 min, and the washing buffer was discarded before pat-drying the plate. The plate was washed four times. 100 μl of TMB substrate was added to each well of the ELISA plate, followed by incubating in a 37° C. incubator for 5 min. 100 μL of STOP solution was added to each well of the ELISA plate, and the plate was gently shaken for a few seconds. The bottom of each well was wiped with lint-free cloth. Within 30 min after adding the STOP solution, the absorbance was read at 450 nm. […] The data were analyzed using the Dose-response equation in GraphPad Prism8 software to obtain the DC50 and Dmax values, and both of them are important indicators for measuring the degradation activities of compounds on target proteins. […] The Dmax value represents the maximum percentage of target protein that can be degraded by the compound.

DC50	Dmax	Structure (SMILES)
< 10 nM	> 75%	O=C1CCC(N2Cc3cc(N4CCC(N5CC6(CCN(c7ccc([C@@H]8c9ccc(O)cc9OC[C@@H]8c8ccccc8)cc7)CC6)C5)CC4)ccc3C2=O)C(=O)N1 (some centres unmarked) [Example 13]
< 10 nM	–	O=C1CCC(N2Cc3cc(N4CCC(N5CC6(CCN(c7ccc([C@@H]8c9ccc(O)cc9OC[C@@H]8c8ccccc8F)cc7)CC6)C5)CC4)ccc3C2=O)C(=O)N1 (stereo partly drawn) [Example 20, 3-(5-(4-(7-(4-(cis-3-(2-fluorophenyl)-7-hydroxychroman-4-yl)phenyl)-2,7-diazaspiro[3.5]nonane-2-yl)piperidin-1-yl)-1-oxoisoinodolin-2-yl)piperidin-2,6-dione]
< 10 nM	> 75%	O=C1CCC(N2Cc3cc(N4CCC(N5CC6(CCN(c7ccc([C@@H]8c9ccc(O)cc9CC[C@@H]8c8ccccc8F)cc7F)CC6)C5)CC4)ccc3C2=O)C(=O)N1 (stereo partly drawn) [Example 67, 3-(5-(4-(7-(2-fluoro-4-((1,2-cis)-2-(2-fluorophenyl)-6-hydroxyl-1,2,3,4-tetrahydronaphthalen-1-yl)phenyl)-2,7-diazaspiro[3.5]nonane-2-yl)piperidin-1-yl)-1-oxoisoinodolin-2-yl)pyridine-2,6-dione]
> 100 nM	< 50%	O=C1CCC(N2Cc3cc(N4CCC(N5CC6(CCN(c7ccc([C@H]8c9ccc(O)cc9CC[C@H]8c8ccccc8F)cc7)CC6)C5)CC4)ccc3C2=O)C(=O)N1 (stereo partly drawn) [Example 21, 3-(5-(4-(7-(4-((1S,2R)-2-(2-fluorophenyl)-6-hydroxyl-1,2,3,4-tetrahydronaphthalen-1-yl)phenyl)-2,7-diazaspiro[3.5]nonane-2-yl)piperidin-1-yl)-1-oxoisoinodolin-2-yl)piperidin-2,6-dione]
> 100 nM	< 50%	O=C1CCC(N2Cc3cc(N4CCC(N5CC6(CCN(c7ccc([C@H]8c9ccc(O)cc9OC[C@H]8c8ccccc8F)cc7)CC6)C5)CC4)ccc3C2=O)C(=O)N1 (some centres unmarked) [Example 15]
< 10 nM	> 75%	O=C1CCC(N2Cc3cc(N4CCC(N5CC6(CCN(c7ccc([C@@H]8c9ccc(O)cc9CC[C@@H]8c8ccccc8)cc7F)CC6)C5)CC4)ccc3C2=O)C(=O)N1 (stereo partly drawn) [Example 69, 3-(5-(4-(7-(2-fluoro-4-((1,2-cis)-6-hydroxyl-2-phenyl-1,2,3,4-tetrahydronaphthalen-1-yl)phenyl)-2,7-diazaspiro[3.5]nonane-2-yl)piperidin-1-yl)-1-oxoisoinodolin-2-yl)pyridine-2,6-dione]
10 to 50 nM	> 75%	O=C1CCC(N2Cc3cc(N4CCC(N5CC6(CCN(c7ccc([C@@H]8c9ccc(O)cc9OC[C@@H]8c8ccccc8)cc7F)CC6)C5)CC4)ccc3C2=O)C(=O)N1 (stereo partly drawn) [Example 23, 3-(5-(4-(7-(4-(cis-3-(2-fluorophenyl)-7-hydroxychroman-4-yl)phenyl)-2,7-diazaspiro[3.5]nonane-2-yl)piperidin-1-yl)-1-oxoisoinodolin-2-yl)piperidin-2,6-dione]

Further lines, the compound ahead of its results:

Structure (SMILES)	DC50	Dmax
O=C1CCC(N2Cc3cc(N4CC5(CCN(CC6CCN(c7c(F)cc(C8=C(c9ccccc9F)COc9cc(OCc%10ccccc%10)ccc98)cc7F)CC6)CC5)C4)ccc3C2=O)C(=O)N1 (centres unmarked) [Example 52]	> 100 nM	< 50%
O=C1CCC(N2Cc3cc(N4CC5(CCN(CC6CN(c7ccc(C8c9ccc(O)cc9OC[C@@H]8c8ccccc8F)cc7)C6)CC5)C4)ccc3C2=O)C(=O)N1 (stereo partly drawn) [Example 5, 3-(5-(7-((1-(4-(cis-3-(2-fluorophenyl)-7-hydroxypyran-4-yl)phenyl)azetidin-3-yl)methyl)-2,7-diazaspiro[3.5]nonane-2-yl)-1-oxoisoinodolin-2-yl)piperidin-2,6-dione]	> 100 nM	50 to 75%
O=C1CCC(N2Cc3cc(N4CC5(CCN(CC6CCN(c7ccc([C@@H]8c9ccc(O)cc9OC[C@@H]8c8cccc(F)c8F)cc7)CC6)CC5)C4)ccc3C2=O)C(=O)N1 (relative stereo) [Example 36, 3-(5-(7-((1-(4-(cis-3-(2,3-difluorophenyl)-7-hydroxychroman-4-yl)phenyl)piperidin-4-yl)methyl)-2,7-diazaspiro[3.5]nonane-2-yl)-1-oxoisoindol-2-yl)piperidin-2,6-dione]	< 10 nM	50 to 75%
O=C1CCC(N2C(=O)c3ccc(N4CC5(CN(CC6CCN(c7ccc([C@@H]8c9ccc(O)cc9CC[C@@H]8c8ccccc8)cc7)CC6)C5)C4)cc3C2=O)C(=O)N1 (stereo partly drawn) [Example 3, 2-(2,6-dioxopiperidin-3-yl)-5-(6-((1-(4-((1R,2S)-6-hydroxyl-2-phenyl-1,2,3,4-tetrahydronaphthalen-1-yl)phenyl)piperidin-4-yl)methyl)-2,6-diazaspiro[3.3]heptan-2-yl)isoinodolin-1,3-dione]	> 100 nM	–
O=C1CCC(N2Cc3cc(N4CC5(CCN(CC6CCN(c7ccc([C@@H]8c9ccc(O)cc9OC[C@@H]8CC(F)(F)F)cc7)CC6)CC5)C4)ccc3C2=O)C(=O)N1 (stereo partly drawn) [Example 92, 3-(5-(7-((1-(4-(cis-7-hydroxyl-3-(2,2,2-trifluoroethyl)chroman-4-yl)phenyl)piperidin-4-yl)methyl)-2,7-diazaspiro[3.5]nonane-2-yl)-1-oxoisoinodolin-2-yl)piperidin-2,6-dione]	10 to 50 nM	50 to 75%
O=C1CCC(N2Cc3cc(N4CC5(CCN(CC6CCN(c7ccc([C@H]8c9ccc(O)cc9OC[C@H]8c8cccc(F)c8F)cc7F)CC6)CC5)C4)ccc3C2=O)C(=O)N1 (stereo partly drawn) [Example 24, 3-(5-(7-((1-(4-((3R,4S)-3-(2,3-difluorophenyl)-7-hydroxychroman-4-yl)-2-fluorophenyl)piperidin-4-yl)methyl)-2,7-diazaspiro[3.5]nonane-2-yl)-1-oxoisoinodolin-2-yl)piperidin-2,6-dione]	> 100 nM	< 50%
O=C1CCC(N2Cc3cc(N4CC5(CCN(CC6CCN(c7ccc([C@H]8c9ccc(O)cc9OC[C@H]8c8c(F)cccc8F)cc7F)CC6)CC5)C4)ccc3C2=O)C(=O)N1 (stereo partly drawn) [Example 71, 3-(5-(7-((1-(4-((3R,4S)-3-(2,6-difluorophenyl)-7-hydroxychroman-4-yl)-2-fluorophenyl)piperidin-4-yl)methyl)-2,7-diazaspiro[3.5]nonane-2-yl)-1-oxoisoinodolin-2-yl)piperidin-2,6-dione]	> 100 nM	< 50%
O=C1CCC(N2Cc3cc(N4CC5(CCN(CC6CCN(c7c(F)cc([C@H]8c9ccc(O)cc9OC[C@H]8c8cccc(F)c8F)cc7F)CC6)CC5)C4)ccc3C2=O)C(=O)N1 (stereo partly drawn) [Example 39, 3-(5-(7-((1-(4-((3R,4S)-3-(2,3-difluorophenyl)-7-hydroxychroman-4-yl)-2,6-difluorophenyl)piperidin-4-yl)methyl)-2,7-diazaspiro[3.5]nonane-2-yl)-1-oxoisoinodolin-2-yl)piperidin-2,6-one]	> 100 nM	< 50%
O=C1CCC(N2Cc3cc(N4CC5(CCN(CC6CCN(c7c(F)cc([C@H]8c9ccc(O)cc9OC[C@H]8c8c(F)cccc8F)cc7F)CC6)CC5)C4)ccc3C2=O)C(=O)N1 (some centres unmarked) [Example 41]	> 100 nM	< 50%
Cc1ccccc1[C@H]1COc2cc(O)ccc2[C@H]1c1ccc(N2CCC(CN3CCC4(CC3)CN(c3ccc5c(c3)CN(C3CCC(=O)NC3=O)C5=O)C4)CC2)cc1 (stereo partly drawn) [Example 35, 3-(5-(7-((1-(4-(cis-7-hydroxyl-3-(o-methylphenyl)chroman-4-yl)phenyl)piperidin-4-yl)methyl)-2,7-diazaspiro[3.5]nonane-2-yl)-1-oxoisoinodolin-2-yl)piperidin-2,6-dione]	10 to 50 nM	50 to 75%
